US20230085307A1, “PYRIDAZINONE COMPOUND AND HERBICIDE” (NISSAN CHEMICAL CORPORATION, priority 2019, published 2023)

Columns and labels:
barnyard grass [1] = experiment: Test Example 3: herbicidal effect by foliage application, Wagner pot (Table 18, symbol H); assay type: in vivo, barnyard grass (Echinochloa crus-galli)
Procedure, shortened: (§1)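 Plants were sown in alluvial soil held under 0.1–0.5 cm standing water and grown 14 days in a greenhouse at 25–30 °C. An emulsifiable formulation, water-diluted to the set dose, was then sprayed onto the foliage, and effects were scored three weeks later using previously defined criteria.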

Chinese sprangletop = experiment: Test Example 3: herbicidal effect by foliage application, Wagner pot (Table 18, symbol D); assay type: in vivo, chinese sprangletop (Leptochloa chinensis)
Procedure, shortened: as §1

rice flat sedge = experiment: Test Example 3: herbicidal effect by foliage application, Wagner pot (Table 18, symbol E); assay type: in vivo, rice flat sedge (Cyperus iria)
Procedure, shortened: as §1

southern crabgrass [2] = experiment: Test Example 4: herbicidal effect by soil treatment (Table 19, symbol F); assay type: in vivo, southern crabgrass (Digitaria ciliaris)
Procedure, shortened: (§2)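 Three weeks of greenhouse growth at 25° C. to 30° C. followed a uniform surface spray of water-diluted emulsion at a predetermined herbicide amount. Seeds had been sown beforehand under about 1.5 cm of sterilized diluvial soil. Grading followed criteria set out in an earlier test.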

green foxtail [3] = experiment: Test Example 4: herbicidal effect by soil treatment (Table 19, symbol G); assay type: in vivo, green foxtail (Setaria viridis)
Procedure, shortened: as §2

barnyard grass [4] = experiment: Test Example 4: herbicidal effect by soil treatment (Table 19, symbol H); assay type: in vivo, barnyard grass (Echinochloa crus-galli)
Procedure, shortened: as §2

wild oat [5] = experiment: Test Example 4: herbicidal effect by soil treatment (Table 19, symbol I); assay type: in vivo, wild oat (Avena fatua)
Procedure, shortened: as §2

blackgrass [6] = experiment: Test Example 4: herbicidal effect by soil treatment (Table 19, symbol J); assay type: in vivo, blackgrass (Alopecurus myosuroides)
Procedure, shortened: as §2

Italian ryegrass [7] = experiment: Test Example 4: herbicidal effect by soil treatment (Table 19, symbol K); assay type: in vivo, Italian ryegrass (Lolium multiflorum)
Procedure, shortened: as §2

windgrass [8] = experiment: Test Example 4: herbicidal effect by soil treatment (Table 19, symbol L); assay type: in vivo, windgrass (Apera spica-venti)
Procedure, shortened: as §2

velvetleaf [9] = experiment: Test Example 4: herbicidal effect by soil treatment (Table 19, symbol M); assay type: in vivo, velvetleaf (Abutilon theophrasti)
Procedure, shortened: as §2

redroot pigweed [10] = experiment: Test Example 4: herbicidal effect by soil treatment (Table 19, symbol N); assay type: in vivo, redroot pigweed (Amaranthus retroflexus)
Procedure, shortened: as §2

lambsquarters [11] = experiment: Test Example 4: herbicidal effect by soil treatment (Table 19, symbol O); assay type: in vivo, lambsquarters (Chenopodium album)
Procedure, shortened: as §2

chickweed [12] = experiment: Test Example 4: herbicidal effect by soil treatment (Table 19, symbol P); assay type: in vivo, common chickweed (Stellaria media)
Procedure, shortened: as §2

persian speedwell [13] = experiment: Test Example 4: herbicidal effect by soil treatment (Table 19, symbol R); assay type: in vivo, Persian speedwell (Veronica persica)
Procedure, shortened: as §2

southern crabgrass [14] = experiment: Test Example 5: herbicidal effect by foliage application, plastic box (Table 20, symbol F); assay type: in vivo, southern crabgrass (Digitaria ciliaris); settings: foliage application
Procedure, shortened: (§3)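 Plants sown in sterilized diluvial soil and grown 14 days in a greenhouse at 25° C to 30° C, then sprayed on the foliage with the compound's emulsion diluted in water to a predetermined herbicide amount. Injury to weeds and crops scored three weeks after application on a visual rating scale.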

green foxtail [15] = experiment: Test Example 5: herbicidal effect by foliage application, plastic box (Table 20, symbol G); assay type: in vivo, green foxtail (Setaria viridis); settings: foliage application
Procedure, shortened: as §3

barnyard grass [16] = experiment: Test Example 5: herbicidal effect by foliage application, plastic box (Table 20, symbol H); assay type: in vivo, barnyard grass (Echinochloa crus-galli); settings: foliage application
Procedure, shortened: as §3

wild oat [17] = experiment: Test Example 5: herbicidal effect by foliage application, plastic box (Table 20, symbol I); assay type: in vivo, wild oat (Avena fatua); settings: foliage application
Procedure, shortened: as §3

blackgrass [18] = experiment: Test Example 5: herbicidal effect by foliage application, plastic box (Table 20, symbol J); assay type: in vivo, blackgrass (Alopecurus myosuroides); settings: foliage application
Procedure, shortened: as §3

Italian ryegrass [19] = experiment: Test Example 5: herbicidal effect by foliage application, plastic box (Table 20, symbol K); assay type: in vivo, Italian ryegrass (Lolium multiflorum); settings: foliage application
Procedure, shortened: as §3

windgrass [20] = experiment: Test Example 5: herbicidal effect by foliage application, plastic box (Table 20, symbol L); assay type: in vivo, windgrass (Apera spica-venti); settings: foliage application
Procedure, shortened: as §3

velvetleaf [21] = experiment: Test Example 5: herbicidal effect by foliage application, plastic box (Table 20, symbol M); assay type: in vivo, velvetleaf (Abutilon theophrasti); settings: foliage application
Procedure, shortened: as §3

redroot pigweed [22] = experiment: Test Example 5: herbicidal effect by foliage application, plastic box (Table 20, symbol N); assay type: in vivo, redroot pigweed (Amaranthus retroflexus); settings: foliage application
Procedure, shortened: as §3

lambsquarters [23] = experiment: Test Example 5: herbicidal effect by foliage application, plastic box (Table 20, symbol O); assay type: in vivo, lambsquarters (Chenopodium album); settings: foliage application
Procedure, shortened: as §3

chickweed [24] = experiment: Test Example 5: herbicidal effect by foliage application, plastic box (Table 20, symbol P); assay type: in vivo, common chickweed (Stellaria media); settings: foliage application
Procedure, shortened: as §3

false cleavers = experiment: Test Example 5: herbicidal effect by foliage application, plastic box (Table 20, symbol Q); assay type: in vivo, false cleavers (Galium spurium); settings: foliage application
Procedure, shortened: as §3

persian speedwell [25] = experiment: Test Example 5: herbicidal effect by foliage application, plastic box (Table 20, symbol R); assay type: in vivo, Persian speedwell (Veronica persica); settings: foliage application
Procedure, shortened: as §3

[26] = 320 g/ha, evaluated three weeks after application
[27] = AAH 80 g/ha, three weeks after application

Compound: Cc1nn(C)c(=O)c(-c2c(-c3ccc4c(c3)OCO4)sc3ccc(F)cc23)c1O [2-090]
- herbicidal effect on H (barnyard grass), rating 0-5 (barnyard grass [1]; 320 g/ha): 5 (Herbicidal rate of 90% or more (almost completely withered))
- herbicidal effect on D (Chinese sprangletop), rating 0-5 (Chinese sprangletop; 320 g/ha): 2 (Herbicidal rate of 20% or more and less than 40%)
- herbicidal effect on E (rice flat sedge), rating 0-5 (rice flat sedge; 320 g/ha): 5 (Herbicidal rate of 90% or more (almost completely withered))
- herbicidal effect rating, F: southern crabgrass (southern crabgrass [2]; 320 g/ha): 2 (Herbicidal rate of 20% or more and less than 40%)
- herbicidal effect rating, G: green foxtail (green foxtail [3]; 320 g/ha): 3 (Herbicidal rate of 40% or more and less than 70%)
- herbicidal effect rating, H: barnyard grass (barnyard grass [4]; 320 g/ha): 2 (Herbicidal rate of 20% or more and less than 40%)
- herbicidal effect rating, I: wild oat (wild oat [5]; 320 g/ha): 0 (Herbicidal rate of 5% or less (almost no effect))
- herbicidal effect rating, J: blackgrass (blackgrass [6]; 320 g/ha): 2 (Herbicidal rate of 20% or more and less than 40%)
- herbicidal effect rating, K: Italian ryegrass (Italian ryegrass [7]; 320 g/ha): 4 (Herbicidal rate of 70% or more and less than 90%)
- herbicidal effect rating, L: windgrass (windgrass [8]; 320 g/ha): 0 (Herbicidal rate of 5% or less (almost no effect))
- herbicidal effect rating, M: velvetleaf (velvetleaf [9]; 320 g/ha): 5 (Herbicidal rate of 90% or more (almost completely withered))
- herbicidal effect rating, N: redroot pigweed (redroot pigweed [10]; 320 g/ha): 5 (Herbicidal rate of 90% or more (almost completely withered))
- herbicidal effect rating, O: lambsquarters (lambsquarters [11]; 320 g/ha): 5 (Herbicidal rate of 90% or more (almost completely withered))
- herbicidal effect rating, P: chickweed (chickweed [12]; 320 g/ha): 4 (Herbicidal rate of 70% or more and less than 90%)
- herbicidal effect rating, R: persian speedwell (persian speedwell [13]; 320 g/ha): 5 (Herbicidal rate of 90% or more (almost completely withered))
- herbicidal effect on F: southern crabgrass (southern crabgrass [14]; [26]): 4 (Herbicidal rate of 70% or more and less than 90%)
- herbicidal effect on G: green foxtail (green foxtail [15]; [26]): 5 (Herbicidal rate of 90% or more (almost completely withered))
- herbicidal effect on H: barnyard grass (barnyard grass [16]; [26]): 5 (Herbicidal rate of 90% or more (almost completely withered))
- herbicidal effect on I: wild oat (wild oat [17]; [26]): 3 (Herbicidal rate of 40% or more and less than 70%)
- herbicidal effect on J: blackgrass (blackgrass [18]; [26]): 4 (Herbicidal rate of 70% or more and less than 90%)
- herbicidal effect on K: Italian ryegrass (Italian ryegrass [19]; [26]): 5 (Herbicidal rate of 90% or more (almost completely withered))
- herbicidal effect on L: windgrass (windgrass [20]; [26]): 5 (Herbicidal rate of 90% or more (almost completely withered))
- herbicidal effect on M: velvetleaf (velvetleaf [21]; [26]): 5 (Herbicidal rate of 90% or more (almost completely withered))
- herbicidal effect on N: redroot pigweed (redroot pigweed [22]; [26]): 5 (Herbicidal rate of 90% or more (almost completely withered))
- herbicidal effect on O: lambsquarters (lambsquarters [23]; [26]): 5 (Herbicidal rate of 90% or more (almost completely withered))
- herbicidal effect on P: chickweed (chickweed [24]; [26]): 5 (Herbicidal rate of 90% or more (almost completely withered))
- herbicidal effect on Q: false cleavers (false cleavers; [26]): 4 (Herbicidal rate of 70% or more and less than 90%)
- herbicidal effect on R: persian speedwell (persian speedwell [25]; [26]): 5 (Herbicidal rate of 90% or more (almost completely withered))

Compound: CCCC(=O)Oc1c(OC)nn(C)c(=O)c1-c1c(-c2ccc(OC)c(OC)c2)sc2ccccc12 [1-183]
- herbicidal effect on H (barnyard grass), rating 0-5 (barnyard grass [1]; 80 g/ha): 3 (Herbicidal rate of 40% or more and less than 70%)
- herbicidal effect on D (Chinese sprangletop), rating 0-5 (Chinese sprangletop; 80 g/ha): 2 (Herbicidal rate of 20% or more and less than 40%)
- herbicidal effect on E (rice flat sedge), rating 0-5 (rice flat sedge; 80 g/ha): 0 (Herbicidal rate of 5% or less (almost no effect))
- F: southern crabgrass, herbicidal effect rating (southern crabgrass [2]; AAH 80 g/ha): 0 (Herbicidal rate of 5% or less (almost no effect))
- G: green foxtail, herbicidal effect rating (green foxtail [3]; AAH 80 g/ha): 0 (Herbicidal rate of 5% or less (almost no effect))
- H: barnyard grass, herbicidal effect rating (barnyard grass [4]; AAH 80 g/ha): 0 (Herbicidal rate of 5% or less (almost no effect))
- I: wild oat, herbicidal effect rating (wild oat [5]; AAH 80 g/ha): 0 (Herbicidal rate of 5% or less (almost no effect))
- J: blackgrass, herbicidal effect rating (blackgrass [6]; AAH 80 g/ha): 0 (Herbicidal rate of 5% or less (almost no effect))
- K: Italian ryegrass, herbicidal effect rating (Italian ryegrass [7]; AAH 80 g/ha): 0 (Herbicidal rate of 5% or less (almost no effect))
- L: windgrass, herbicidal effect rating (windgrass [8]; AAH 80 g/ha): 0 (Herbicidal rate of 5% or less (almost no effect))
- M: velvetleaf, herbicidal effect rating (velvetleaf [9]; AAH 80 g/ha): 0 (Herbicidal rate of 5% or less (almost no effect))
- N: redroot pigweed, herbicidal effect rating (redroot pigweed [10]; AAH 80 g/ha): 0 (Herbicidal rate of 5% or less (almost no effect))
- O: lambsquarters, herbicidal effect rating (lambsquarters [11]; AAH 80 g/ha): 0 (Herbicidal rate of 5% or less (almost no effect))
- P: chickweed, herbicidal effect rating (chickweed [12]; AAH 80 g/ha): 3 (Herbicidal rate of 40% or more and less than 70%)
- R: persian speedwell, herbicidal effect rating (persian speedwell [13]; AAH 80 g/ha): 4 (Herbicidal rate of 70% or more and less than 90%)
- F: southern crabgrass, herbicidal effect (southern crabgrass [14]; [27]): 1 (Herbicidal rate of 5% or more and less than 20%)
- G: green foxtail, herbicidal effect (green foxtail [15]; [27]): 4 (Herbicidal rate of 70% or more and less than 90%)
- H: barnyard grass, herbicidal effect (barnyard grass [16]; [27]): 4 (Herbicidal rate of 70% or more and less than 90%)
- I: wild oat, herbicidal effect (wild oat [17]; [27]): 0 (Herbicidal rate of 5% or less (almost no effect))
- J: blackgrass, herbicidal effect (blackgrass [18]; [27]): 0 (Herbicidal rate of 5% or less (almost no effect))
- K: Italian ryegrass, herbicidal effect (Italian ryegrass [19]; [27]): 1 (Herbicidal rate of 5% or more and less than 20%)
- L: windgrass, herbicidal effect (windgrass [20]; [27]): 0 (Herbicidal rate of 5% or less (almost no effect))
- M: velvetleaf, herbicidal effect (velvetleaf [21]; [27]): 1 (Herbicidal rate of 5% or more and less than 20%)
- N: redroot pigweed, herbicidal effect (redroot pigweed [22]; [27]): 3 (Herbicidal rate of 40% or more and less than 70%)
- O: lambsquarters, herbicidal effect (lambsquarters [23]; [27]): 3 (Herbicidal rate of 40% or more and less than 70%)
- P: chickweed, herbicidal effect (chickweed [24]; [27]): 4 (Herbicidal rate of 70% or more and less than 90%)
- Q: false cleavers, herbicidal effect (false cleavers; [27]): 2 (Herbicidal rate of 20% or more and less than 40%)
- R: persian speedwell, herbicidal effect (persian speedwell [25]; [27]): 5 (Herbicidal rate of 90% or more (almost completely withered))
